{
  "source": "paper PMC11794677",
  "about": "“Self‐Assembly of a Conjugate of Lipoic Acid With a Collagen‐Stimulating Pentapeptide Showing Cytocompatibility and Wound Healing Properties, and Chemical and Photolytic Disassembly” (Journal of Peptide Science, 2025)",
  "key": {"HDFa cells": {"tested_on": "HDFa cells", "test": "MTT cytocompatibility assay", "assay_type": "cell-based, Human", "conditions": "72 h incubation, concentrations up to 0.1 wt%, absorbance 560 nm, ANOVA, n = 3", "procedure": "For the cytocompatibility assays, HDFa cells were cultivated in DMEM/F12 supplemented with 5% FBS, Glutamax, penicillin/streptomycin 100 IU/mL and incubated at 37°C within an atmosphere of 5% CO2. The RAW cells were cultured in DMEM with 10% FBS, Glutamax, penicillin/streptomycin 100 IU/mL and maintained under the same conditions as the HDFa cells.\nTo measure the cytocompatibility of lipoyl‐KTTKS, 24 h before the assay HDFa cells were cultivated in 96‐well plates with 1 × 10^4 cells/well with supplemented DMEM/F12. Then, the wells were washed three times with PBS, and cells were incubated for 72 h in media containing different concentrations of lipoyl‐KTTKS. After incubation, the cells were washed again three times with PBS and 100 μL of DMEM/F12 without phenol red + 5 μg/mL of MTT was added to each well. The plate containing cells in media containing MTT was incubated for 4 h inside an incubator at 37°C, protected from the light. After incubation, 100 μL of DMSO was added to each well to solubilize the resulting formazan crystals. The absorbance was measured at 560 nm using an Infinite F50 microplate reader (TECAN, Switzerland)."}, "[1]": {"test": "Chemical reduction with TCEP, effect on self-assembled structures", "assay_type": "physicochemical", "conditions": "3 wt% with 2.6 wt% TCEP, SAXS and SANS; cryo-TEM 1 wt% + 0.37 wt% TCEP", "excerpt": "The ring‐opening of the lipoyl moiety can be achieved under reductive conditions. We examined the effect of chemical reduction on the self‐assembled structures of lipoyl‐KTTKS using TCEP [tris(2‐carboxyethyl)phosphine] as reductant. […] The SAXS data in Figure 3a show a considerable reduction in scattering intensity after addition of TCEP and the SANS profile in Figure 3b is barely above background after addition of TCEP. The SAXS data can be described using a form factor for monomer scattering with a power‐law intensity function at low q to account for a small fraction of irregular aggregates. The disruption of the fibrils upon TCEP addition was also confirmed by cryo‐TEM (images shown in Figure S1) because no aggregate structures were observed after addition of TCEP. Circular dichroism (CD) spectra shown in Figure 4 are characterized by a negative minimum in the CD spectrum at 196 nm along with the absence of defined features at higher wavelength, characteristic of a primarily disordered conformation. […] This is consistent with the observation that lipoyl‐KTTKS forms fibril‐like structures above a CAC detected by ThT binding to β‐sheet structure and as observed by cryo‐TEM, SAXS and SANS. […]"}, "[2]": {"test": "UV exposure / photodegradation, UV-vis absorbance at 333 nm", "assay_type": "physicochemical", "conditions": "UV lamp 365 nm for 1 h, 0.1 wt% solution, read 24 h after irradiation", "procedure": "To investigate the effect of UV exposure on lipoyl‐KTTKS the peptide powder was irradiated using a 4W UVGL‐25 lamp (Analytik Jena, Germany) at a wavelength of 365 nm for 1 h. The absorbance was tracked at 333 nm before, just after exposure and 24 h after exposure using a nanodrop spectrometer (Thermo‐Fisher Scientific). The full spectra were also collected using a Varian Cary Bio 300 UV‐vis (Cary).\nLipoic acid is susceptible to photolysis upon exposure to UV light. Photodegradation of lipoyl‐KTTKS was studied via UV‐vis, FTIR and CD spectroscopy and degradation products were analysed by electrospray ionisation‐mass spectroscopy (ESI‐MS). Photolysis was induced by exposure to UV for 1 h using a UV lamp with 365‐nm radiation. Lipoic acid presents a characteristic weak band at 333 nm that is related to the hindered dithiolane ring, that can be broken by UV irradiation. The absorbance of lipoyl‐KTTKS (0.1 wt% solution) before irradiation, just after and 24 h after irradiation to evaluate the recovery of the dithiolane ring is shown in Figure 5. […] The UV exposure disrupts the dithiolane ring, as reflected also in the FTIR spectrum (Figure S2), with the suppression of bands ν(S‐S) at 519 and 438 cm^−1 and ν(C‐S) at 721 cm^−1 [48, 49]."}, "[3]": {"test": "CAC assay with fluorescent probe thioflavin T (ThT)", "assay_type": "physicochemical", "conditions": "ThT fluorescence peak intensity (λem = 448 nm) vs concentration", "procedure": "Before considering biocompatibility and bioactivity of lipoyl‐KTTKS, we examined whether this lipopeptide has a critical aggregation concentration (CAC) above which it forms self‐assembled aggregate structures. Based on our previous work on KTTKS‐lipopeptides, β‐sheet formation of lipoyl‐KTTKS is likely to be favoured. Therefore a CAC assay using the fluorescent probe thioflavin T (ThT) which is sensitive to β‐sheet formation was performed. The ThT fluorescence peak intensity was monitored as a function of concentration, and the results are shown in Figure 1 and indicate a CAC value (0.5 ± 0.1) wt% from the intersection of the straight lines at low and high concentrations, or (0.67 ± 0.06) wt% as the midpoint of a fitted Boltzmann‐type sigmoidal function: I=A2+A1−A2/1+expc−c1/2/σ\nFIGURE 1 CAC assay plotting fluorescence intensity of ThT (λ em = 448 nm) as a function of concentration. […] The black lines provide a linear intercept estimate of CAC.\nHere, I is the fluorescence intensity (at λ em = 448 nm), A 1 and A 2 are constants, c is the lipopeptide concentration, c 1/2 is the mid‐point concentration, and σ is the width parameter."}},
  "data": [
    {"substance": "lipoyl‐KTTKS [peptide amphiphile comprising a conjugate of lipoic acid to pentapeptide KTTKS]", "values": [
      {"measurement": "Cytotoxicity (cell viability, MTT)", "setting": "HDFa cells", "result": "does not present any statistically significant cytotoxicity"},
      {"measurement": "Effect of addition of TCEP on self-assembled structures", "setting": "[1]", "result": "disrupts the fibril structures"},
      {"measurement": "Recovery of absorbance at 333 nm (dithiolane ring) after UV exposure", "setting": "[2]", "result": "incomplete recovery"},
      {"measurement": "CAC (critical aggregation concentration) from intersection of straight lines", "setting": "[3]; intersection of straight lines at low and high concentrations", "result": "0.5 ± 0.1", "unit": "wt%"},
      {"measurement": "CAC as midpoint of fitted Boltzmann-type sigmoidal function", "setting": "[3]; midpoint c1/2 of sigmoidal fit", "result": "0.67 ± 0.06", "unit": "wt%"}
    ]}
  ]
}
